Test results from patent US20230201168A1, “NEW THERAPY FOR THE TREATMENT OF TUMORS” (Università degli Studi di Trento, priority 2020, published 2023).

How the values were obtained:
COMI cells = test: Viability assay (Hoechst 33342/PI), COMI cells; format: cell-based; settings: Homo sapiens, 48 h, mean±SD
Protocol: (§1) For the evaluation of the effect of Q/D, streptogramins A analogues (alone or in combination with Q) and TMZ on GSCs viability, cells were seeded into 96-well laminin-coated microtiter plates in 150 μL of media. The plates were incubated for 24 h prior to drug treatment. Serial drug dilutions were prepared in PBS to provide a total of seven drug concentrations plus control. 10 μL of these dilutions were added to each well, and the plates were incubated for additional 48 h. Each treatment was performed in technical quadruplicate. After the drug treatments, the cells were stained with Hoechst 33342 (1 μg/mL; Thermo Fisher Scientific, cat. H1399) and Propidium Iodide (PI, 1 μg/mL; Sigma Aldrich, cat. P4170) and incubated for 20 min shaking in the dark. The plates were then read using Operetta-High Content Imaging System (Perkin Elmer) and analyzed using the Harmony Software. The number of viable cells was calculated by subtracting PI positive cells from the total number of cells estimated by Hoechst 33342 staining and normalized on the non treated control.
(§2) Dose-response curves were plotted and growth inhibition 50 (GI50) values calculated using the GraphPad Prism software.

VIPI cells = test: Viability assay (Hoechst 33342/PI), VIPI cells; format: cell-based; settings: Homo sapiens, 48 h, mean±SD
Protocol: as §1, §2

In the case of `Cn1nnc2c(C(N)=O)ncn2c1=O` [TMZ, temozolomide], the GI50 (COMI cells) is reported as 96.5 ± 15.2 µM and the GI50 (VIPI cells) is reported as 338 ± 35.5 µM.
